pIC50: −log10 of the molar value.
Target: H1047R PIK3CA enzyme (Homo sapiens, UniProt P42336, H1047R)
Assay: ADP-Glo Biochemical PIK3CA Kinase Assay

H1047R PIK3CA enzyme, sequence (P42336 whole entry H1047R): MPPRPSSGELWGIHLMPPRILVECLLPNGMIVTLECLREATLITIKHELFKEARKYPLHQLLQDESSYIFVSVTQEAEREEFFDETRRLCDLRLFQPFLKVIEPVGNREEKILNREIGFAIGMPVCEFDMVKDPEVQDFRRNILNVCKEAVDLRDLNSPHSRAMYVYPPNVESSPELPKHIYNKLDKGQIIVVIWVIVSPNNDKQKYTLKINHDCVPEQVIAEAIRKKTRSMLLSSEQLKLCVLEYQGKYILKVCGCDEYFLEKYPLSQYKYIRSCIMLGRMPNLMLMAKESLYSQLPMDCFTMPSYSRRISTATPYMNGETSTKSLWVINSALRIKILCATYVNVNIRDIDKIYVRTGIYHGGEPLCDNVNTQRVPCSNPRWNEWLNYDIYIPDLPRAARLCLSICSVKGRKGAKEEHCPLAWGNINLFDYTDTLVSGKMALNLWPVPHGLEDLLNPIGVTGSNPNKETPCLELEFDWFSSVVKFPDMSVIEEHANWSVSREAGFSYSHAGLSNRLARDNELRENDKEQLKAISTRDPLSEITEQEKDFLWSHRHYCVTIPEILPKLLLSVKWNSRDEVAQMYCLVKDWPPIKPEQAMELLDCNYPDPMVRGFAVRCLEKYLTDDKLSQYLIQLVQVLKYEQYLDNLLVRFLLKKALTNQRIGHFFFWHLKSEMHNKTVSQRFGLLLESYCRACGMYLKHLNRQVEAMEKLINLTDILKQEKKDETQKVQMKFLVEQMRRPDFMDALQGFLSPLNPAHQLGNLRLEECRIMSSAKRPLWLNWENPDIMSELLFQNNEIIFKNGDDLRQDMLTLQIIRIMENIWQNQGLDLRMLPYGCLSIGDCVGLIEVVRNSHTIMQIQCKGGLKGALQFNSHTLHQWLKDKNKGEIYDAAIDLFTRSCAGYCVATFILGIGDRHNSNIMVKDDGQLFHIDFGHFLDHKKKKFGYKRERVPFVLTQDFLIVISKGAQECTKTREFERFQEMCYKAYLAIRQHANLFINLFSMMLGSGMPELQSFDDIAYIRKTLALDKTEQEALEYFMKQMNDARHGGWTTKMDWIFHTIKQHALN
H1047R PIK3CA enzyme, sequence (P27986 whole entry partner): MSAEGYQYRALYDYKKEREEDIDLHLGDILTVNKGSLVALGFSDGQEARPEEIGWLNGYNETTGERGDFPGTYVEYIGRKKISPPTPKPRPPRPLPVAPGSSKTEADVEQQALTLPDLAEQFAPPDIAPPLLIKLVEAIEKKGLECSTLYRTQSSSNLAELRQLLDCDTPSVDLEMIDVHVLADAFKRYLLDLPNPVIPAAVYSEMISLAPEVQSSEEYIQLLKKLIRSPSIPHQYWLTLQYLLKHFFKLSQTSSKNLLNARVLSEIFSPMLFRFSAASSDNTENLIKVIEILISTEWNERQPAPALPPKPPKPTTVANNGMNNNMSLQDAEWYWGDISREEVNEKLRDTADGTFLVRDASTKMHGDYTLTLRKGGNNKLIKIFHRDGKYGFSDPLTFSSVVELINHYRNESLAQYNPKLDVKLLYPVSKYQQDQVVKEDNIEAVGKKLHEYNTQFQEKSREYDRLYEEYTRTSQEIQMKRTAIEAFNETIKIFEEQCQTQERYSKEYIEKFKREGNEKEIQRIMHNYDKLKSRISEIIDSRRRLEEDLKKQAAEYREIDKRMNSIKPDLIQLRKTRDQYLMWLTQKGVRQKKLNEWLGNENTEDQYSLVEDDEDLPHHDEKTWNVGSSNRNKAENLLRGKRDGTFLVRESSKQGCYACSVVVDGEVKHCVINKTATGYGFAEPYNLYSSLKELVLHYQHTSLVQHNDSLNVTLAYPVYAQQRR

Row | Structure (SMILES) | pIC50
1 | CCn1cc(-c2cc(NC(=O)c3cc(F)cc(C(F)(F)F)c3)c3c(n2)C(=O)N[C@@H]3c2cc(F)ccc2Cl)ccc1=O [Compound I-614] | 5.00 to 6.00
2 | CCn1cc(-c2cc(NC(=O)c3cc(F)cc(C(F)(F)F)c3)c3c(n2)C(=O)N[C@H]3c2cc(F)ccc2Cl)ccc1=O [Compound I-615] | ≥ 7.00
3 | O=C(Nc1cc(Cl)nc2c1[C@H](c1cc(F)ccc1Cl)NC2=O)c1cc(F)cc(C(F)(F)F)c1 [Compound I-616] | 6.30 to 7.00
4 | O=C(Nc1cc(Cl)nc2c1[C@@H](c1cc(F)ccc1Cl)NC2=O)c1cc(F)cc(C(F)(F)F)c1 [Compound I-617] | ≥ 7.00
5 | CS(=O)(=O)Cc1cc(NC(=O)c2cc(F)cc(C(F)(F)F)c2)c2c(c1)C(=O)N[C@H]2c1cc(F)ccc1Cl [Compound I-618] | ≥ 7.00
6 | CS(=O)(=O)Cc1cc(NC(=O)c2cc(F)cc(C(F)(F)F)c2)c2c(c1)C(=O)N[C@@H]2c1cc(F)ccc1Cl [Compound I-619] | 5.00 to 6.00
7 | CC(=O)Cc1cc(NC(=O)c2cc(F)cc(C(F)(F)F)c2)c2c(c1)C(=O)NC2c1cc(F)ccc1C(F)F (stereo not drawn) [Compound I-620] | ≥ 7.00
8 | CC(C)(O)Cc1cc(NC(=O)c2cc(F)cc(C(F)(F)F)c2)c2c(c1)C(=O)N[C@H]2c1cc(F)ccc1Cl [Compound I-621] | ≥ 7.00
9 | CC(C)(O)Cc1cc(NC(=O)c2cc(F)cc(C(F)(F)F)c2)c2c(c1)C(=O)N[C@@H]2c1cc(F)ccc1Cl [Compound I-622] | 6.30 to 7.00
10 | CC(=O)Cc1cc(NC(=O)c2cc(F)cc(C(F)(F)F)c2)c2c(c1)C(=O)N[C@@H]2c1cc(F)ccc1Cl [Compound I-623] | ≥ 7.00
11 | CC(=O)Cc1cc(NC(=O)c2cc(F)cc(C(F)(F)F)c2)c2c(c1)C(=O)N[C@H]2c1cc(F)ccc1Cl [Compound I-624] | 6.30 to 7.00
12 | O=C(Nc1cc(NC(=O)C2CC2)cc2c1C(c1cc(F)ccc1Cl)NC2=O)c1cc(F)cc(C(F)(F)F)c1 (stereo not drawn) [Compound I-625] | ≥ 7.00
13 | O=C1NC(c2cc(F)ccc2Cl)c2c(NC(=O)c3csc4ccccc34)cc(Br)cc21 (stereo not drawn) [Compound I-626] | ≥ 7.00
14 | CC(C)(O)c1cc(F)cc(C(=O)Nc2cccc3c2C(c2cc(F)ccc2Cl)NC3=O)c1 (stereo not drawn) [Compound I-627] | 4.00 to 5.00
15 | O=C(Nc1cccc2c1C(c1cc(F)ccc1Br)NC2=O)c1cc(F)cc(C(F)(F)F)c1 (stereo not drawn) [Compound I-628] | ≥ 7.00
16 | O=C(Nc1cccc2c(=O)[nH]n(C3CCCCC3)c12)c1cc(F)cc(C(F)(F)F)c1 [Compound I-629] | 5.00 to 6.00
17 | O=C(Nc1cccc2c1C(c1ccnc(Cl)c1)NC2=O)c1cc(F)cc(C(F)(F)F)c1 (stereo not drawn) [Compound I-630] | 4.00 to 5.00
18 | O=C1NC(c2cc(F)ccc2Cl)c2c(NC(=O)C3CCCc4ccccc43)cc(Br)cc21 (stereo not drawn) [Compound I-631] | 5.00 to 6.00
19 | O=C1NC(c2cc(F)ccc2Cl)c2c(NC(=O)C3(c4ccccc4)COC3)cc(Br)cc21 (stereo not drawn) [Compound I-632] | 4.00 to 5.00
20 | O=C(Cn1ncc2ccccc21)Nc1cc(Br)cc2c1C(c1cc(F)ccc1Cl)NC2=O (stereo not drawn) [Compound I-633] | 4.00 to 5.00
21 | CC1(C(=O)Nc2cc(Br)cc3c2C(c2cc(F)ccc2Cl)NC3=O)CCCc2ccccc21 (stereo not drawn) [Compound I-634] | 5.00 to 6.00
22 | Cc1cc2cccc(C(=O)Nc3cc(Br)cc4c3C(c3cc(F)ccc3Cl)NC4=O)c2o1 (stereo not drawn) [Compound I-635] | 5.00 to 6.00
23 | Cn1ccc2c(C(=O)Nc3cc(Br)cc4c3C(c3cc(F)ccc3Cl)NC4=O)ccnc21 (stereo not drawn) [Compound I-636] | 4.00 to 5.00

Row | Structure (SMILES) | pIC50
24 | O=C(Nc1cc(Br)cc2c1C(c1cc(F)ccc1Cl)NC2=O)c1ccc2nncn2c1 (stereo not drawn) [Compound I-637] | 4.00 to 5.00
25 | O=C1NC(c2cc(F)ccc2Cl)c2c(NC(=O)c3nccc4ccccc34)cc(Br)cc21 (stereo not drawn) [Compound I-638] | 4.00 to 5.00
26 | N#Cc1ccccc1C(=O)Nc1cc(Br)cc2c1C(c1cc(F)ccc1Cl)NC2=O (stereo not drawn) [Compound I-639] | 4.00 to 5.00
27 | CCc1cc(C(=O)Nc2cc(Br)cc3c2C(c2ccccc2C)NC3=O)ccc1F (stereo not drawn) [Compound I-640] | 5.00 to 6.00
28 | O=C(Nc1cc(F)cc2c1C(c1cc(F)ccc1Cl)NC2=O)c1cc(F)cc(C(F)(F)F)c1 (stereo not drawn) [Compound I-641] | ≥ 7.00
29 | O=C(Nc1cc(C2=CCOC2)cc2c1C(c1cc(F)ccc1Cl)NC2=O)c1cc(F)cc(C(F)(F)F)c1 (stereo not drawn) [Compound I-643] | ≥ 7.00
30 | O=C(Nc1cc(CC2(O)CC2)cc2c1C(c1cc(F)ccc1Cl)NC2=O)c1cc(F)cc(C(F)(F)F)c1 (stereo not drawn) [Compound I-644] | ≥ 7.00
31 | CC(C)(O)Cc1cc(NC(=O)c2cc(F)cc(Cl)c2)c2c(c1)C(=O)NC2c1cc(F)ccc1Cl (stereo not drawn) [Compound I-645] | ≥ 7.00
32 | O=C1NC(c2cc(F)ccc2Cl)c2c(NC(=O)c3cc(F)cc4cc[nH]c34)cccc21 (stereo not drawn) [Compound I-646] | ≥ 7.00
33 | O=C(Nc1cc(-c2ccc(=O)n(C3CC3)c2)nc2c1C(c1cc(F)ccc1Cl)NC2=O)c1cc(F)cc(C(F)(F)F)c1 (stereo not drawn) [Compound I-647] | ≥ 7.00
34 | Cn1cc(-c2cc(NC(=O)c3cc(F)cc(C(F)(F)F)c3)c3c(c2)C(=O)NC3c2cc(F)ccc2Cl)ccc1=O (stereo not drawn) [Compound I-648] | ≥ 7.00
35 | CCn1cc(-c2cc(NC(=O)c3cc(F)cc(C(F)(F)F)c3)c3c(c2)C(=O)NC3c2cc(F)ccc2Cl)ccc1=O (stereo not drawn) [Compound I-649] | ≥ 7.00
36 | CC(C)n1cc(-c2cc(NC(=O)c3cc(F)cc(C(F)(F)F)c3)c3c(n2)C(=O)N[C@@H]3c2cc(F)ccc2Cl)ccc1=O [Compound I-650] | 6.00 to 6.30
37 | CC(C)n1cc(-c2cc(NC(=O)c3cc(F)cc(C(F)(F)F)c3)c3c(n2)C(=O)N[C@H]3c2cc(F)ccc2Cl)ccc1=O [Compound I-651] | ≥ 7.00
38 | Cc1ncc(-c2cc(NC(=O)c3cc(F)cc(C(F)(F)F)c3)c3c(n2)C(=O)N[C@@H]3c2cc(F)ccc2Cl)cn1 [Compound I-652] | 6.00 to 6.30
39 | Cc1ncc(-c2cc(NC(=O)c3cc(F)cc(C(F)(F)F)c3)c3c(n2)C(=O)N[C@H]3c2cc(F)ccc2Cl)cn1 [Compound I-653] | ≥ 7.00
40 | O=C(Nc1cc(C2CNC2)cc2c1C(c1cc(F)ccc1Cl)NC2=O)c1cc(F)cc(C(F)(F)F)c1 (stereo not drawn) [Compound I-654] | ≥ 7.00
41 | CC(=O)N1CC(c2cc(NC(=O)c3cc(F)cc(C(F)(F)F)c3)c3c(c2)C(=O)NC3c2cc(F)ccc2Cl)C1 (stereo not drawn) [Compound I-655] | ≥ 7.00
42 | CC(C)(COS(C)(=O)=O)c1cc(NC(=O)c2cc(F)cc(C(F)(F)F)c2)c2c(c1)C(=O)NC2c1cc(F)ccc1Cl (stereo not drawn) [Compound I-656] | ≥ 7.00
43 | Cc1ccccc1C1NC(=O)c2cccc(NC(=O)c3cc(F)cc(C4COC4)c3)c21 (stereo not drawn) [Compound I-657] | 5.00 to 6.00
44 | O=C(Nc1cccc2c1C(c1ccnc(O)c1)NC2=O)c1cc(F)cc(C(F)(F)F)c1 (stereo not drawn) [Compound I-658] | 4.00 to 5.00
45 | N#Cc1cccc(C2NC(=O)c3cccc(NC(=O)c4cc(F)cc(C(F)(F)F)c4)c32)c1 (stereo not drawn) [Compound I-659] | 4.00 to 5.00
46 | O=C(Nc1cccc2c1C(c1cccc3c1NCC3)NC2=O)c1cc(F)cc(C(F)(F)F)c1 (stereo not drawn) [Compound I-660] | 4.00 to 5.00

Row | Structure (SMILES) | pIC50
47 | O=C(Nc1cccc2c1C(c1cccc(Br)c1)NC2=O)c1cc(F)cc(C(F)(F)F)c1 (stereo not drawn) [Compound I-663] | 4.00 to 5.00
48 | O=C(Nc1cccc2c1C(c1cccc3cn[nH]c13)NC2=O)c1cc(F)cc(C(F)(F)F)c1 (stereo not drawn) [Compound I-666] | 4.00 to 5.00
49 | O=C(Nc1cc(Br)cc2c1[C@@H](c1cccc(F)c1Cl)NC2=O)c1cc(F)cc(C(F)(F)F)c1 [Compound I-667] | 5.00 to 6.00
50 | Cn1ccc2ccc(C(=O)Nc3cc(Br)cc4c3C(c3cc(F)ccc3Cl)NC4=O)cc21 (stereo not drawn) [Compound I-668] | 5.00 to 6.00
51 | O=C(Nc1cc(Br)cc2c1[C@H](c1cccc(F)c1Cl)NC2=O)c1cc(F)cc(C(F)(F)F)c1 [Compound I-669] | ≥ 7.00
52 | Cn1ccc2c(C(=O)Nc3cc(Br)cc4c3C(c3cc(F)ccc3Cl)NC4=O)cccc21 (stereo not drawn) [Compound I-670] | 4.00 to 5.00
53 | O=C(Nc1cc(Br)cc2c1[C@@H](c1cc(F)ccc1F)NC2=O)c1cc(F)cc(C(F)(F)F)c1 [Compound I-671] | 5.00 to 6.00
54 | O=C(Nc1cc(Br)cc2c1C(c1cccc(F)c1Cl)NC2=O)c1cc(F)cc(C(F)(F)F)c1 (stereo not drawn) [Compound I-672] | ≥ 7.00
55 | O=C1NC(c2cc(F)ccc2Cl)c2c(NC(=O)c3cncc4ccccc34)cc(Br)cc21 (stereo not drawn) [Compound I-673] | 5.00 to 6.00
56 | O=C(Nc1cc(Br)cc2c1[C@H](c1cc(F)ccc1F)NC2=O)c1cc(F)cc(C(F)(F)F)c1 [Compound I-674] | 6.30 to 7.00
57 | O=C(Nc1cc(Br)cc2c1C(c1cc(F)ccc1F)NC2=O)c1cc(F)cc(C(F)(F)F)c1 (stereo not drawn) [Compound I-675] | ≥ 7.00
58 | O=C(Nc1cc(Br)cc2c1[C@@H](c1cc(F)c(F)cc1Cl)NC2=O)c1cc(F)cc(C(F)(F)F)c1 [Compound I-676] | 5.00 to 6.00
59 | O=C(Nc1cc(Br)cc2c1[C@H](c1cc(F)c(F)cc1Cl)NC2=O)c1cc(F)cc(C(F)(F)F)c1 [Compound I-677] | ≥ 7.00
60 | O=C(Nc1cc(Br)cc2c1C(c1cc(F)c(F)cc1Cl)NC2=O)c1cc(F)cc(C(F)(F)F)c1 (stereo not drawn) [Compound I-678] | ≥ 7.00
61 | O=C(Nc1cc(Br)cc2c1[C@@H](c1c(F)cccc1Cl)NC2=O)c1cc(F)cc(C(F)(F)F)c1 [Compound I-679] | 5.00 to 6.00
62 | O=C(Nc1cc(Br)cc2c1[C@H](c1c(F)cccc1Cl)NC2=O)c1cc(F)cc(C(F)(F)F)c1 [Compound I-680] | ≥ 7.00
63 | O=C(Nc1cc(Br)cc2c1C(c1c(F)cccc1Cl)NC2=O)c1cc(F)cc(C(F)(F)F)c1 (stereo not drawn) [Compound I-681] | 5.00 to 6.00
64 | O=C(Nc1cc(Br)cc2c1[C@H](c1cccc(F)c1F)NC2=O)c1cc(F)cc(C(F)(F)F)c1 [Compound I-682] | 6.30 to 7.00
65 | O=C(Nc1cc(Br)cc2c1[C@@H](c1cccc(F)c1F)NC2=O)c1cc(F)cc(C(F)(F)F)c1 [Compound I-683] | 5.00 to 6.00
66 | O=C(Nc1cc(Br)cc2c1C(c1cccc(F)c1F)NC2=O)c1cc(F)cc(C(F)(F)F)c1 (stereo not drawn) [Compound I-684] | 5.00 to 6.00
67 | COc1cccc(C2NC(=O)c3cccc(NC(=O)c4cc(F)cc(C(F)(F)F)c4)c32)c1 (stereo not drawn) [Compound I-687] | 4.00 to 5.00
68 | O=C(Nc1cc(Cl)cc2c1C(c1cc(F)ccc1Cl)NC2=O)c1cc(F)cc(C(F)(F)F)c1 (stereo not drawn) [Compound I-688] | ≥ 7.00
69 | O=C(Nc1cc(C2COC2)nc2c1C(c1cc(F)ccc1Cl)NC2=O)c1cc(F)cc(C(F)(F)F)c1 (stereo not drawn) [Compound I-689] | 6.30 to 7.00

Source: patent publication US12581252B2, “Substituted pyrrolo[3,4-b]pyridines as PI3K-α inhibitors” (Relay Therapeutics, Inc., priority 2020, dated 2026)
